ChEMBL document CHEMBL4014340, “Identification of a Potent, Selective, and Efficacious Phosphatidylinositol 3-Kinase δ (PI3Kδ) Inhibitor for the Treatment of Immunological Disorders” (J Med Chem, 2017)
Blank lines part the entries; values can stand above or below the compound they belong to.

How the values were obtained:
[1] = Metabolic stability in human liver microsomes assessed as parent compound remaining at 0.5 uM preincubated for 6 mins followed by NADPH addition measured after 10 mins by LC-MS/MS analysis; type: ADME, microsome; settings: read-out: Stability
[2] = Metabolic stability in rat liver microsomes assessed as parent compound remaining at 0.5 uM preincubated for 6 mins followed by NADPH addition measured after 10 mins by LC-MS/MS analysis; type: ADME, microsome; settings: read-out: Stability
[3] = Metabolic stability in mouse liver microsomes assessed as parent compound remaining at 0.5 uM preincubated for 6 mins followed by NADPH addition measured after 10 mins by LC-MS/MS analysis; type: ADME, microsome; settings: read-out: Stability
[4] = Half life in human liver microsomes aat 0.5 uM preincubated for 6 mins followed by NADPH addition measured after 10 mins by LC-MS/MS analysis; type: ADME, microsome
[5] = Half life in rat liver microsomes aat 0.5 uM preincubated for 6 mins followed by NADPH addition measured after 10 mins by LC-MS/MS analysis; type: ADME, microsome
[6] = Half life in mouse liver microsomes aat 0.5 uM preincubated for 6 mins followed by NADPH addition measured after 10 mins by LC-MS/MS analysis; type: ADME, microsome
[7] = Cmax in mouse at 6 mg/kg, po; type: ADME, organism-based; set-up: dose 6 mg/kg, route oral; settings: in vivo
[8] = Cmax in rat at 5 mg/kg, po; type: ADME, organism-based; set-up: dose 5 mg/kg, route oral; settings: in vivo
[9] = Cmax in Balb/c mouse at 10 mg/kg, po; type: ADME, organism-based; set-up: dose 10 mg/kg, route oral; settings: in vivo
[10] = AUC (0 to 24 hrs) in Balb/c mouse at 10 mg/kg, po; type: ADME, organism-based; set-up: time < 24 hr, dose 10 mg/kg, route oral; settings: in vivo
[11] = Cmax in dog at 2 mg/kg, po; type: ADME, organism-based, Canis lupus familiaris; set-up: dose 2 mg/kg, route oral; settings: in vivo
[12] = AUC in mouse at 6 mg/kg, po; type: ADME, organism-based; settings: in vivo
[13] = Clearance in monkey at 1 mg/kg, iv; type: ADME, organism-based, Macaca mulatta; settings: rhesus monkey, in vivo
[14] = AUC in rat at 5 mg/kg, po; type: ADME, organism-based; settings: in vivo
[15] = Clearance in mouse at 3 mg/kg, iv; type: ADME, organism-based; settings: in vivo
[16] = Clearance in rat at 2 mg/kg, iv; type: ADME, organism-based; settings: in vivo
[17] = Volume of distribution at steady state in mouse at 3 mg/kg, iv; type: ADME, organism-based; settings: in vivo, read-out: Vdss
[18] = Volume of distribution at steady state in rat at 2 mg/kg, iv; type: ADME, organism-based; settings: in vivo, read-out: Vdss
[19] = Volume of distribution at steady state in dog at 1 mg/kg, iv; type: ADME, organism-based, Canis lupus familiaris; settings: in vivo, read-out: Vdss
[20] = Volume of distribution at steady state in monkey at 1 mg/kg, iv; type: ADME, organism-based, Macaca mulatta; settings: rhesus monkey, in vivo, read-out: Vdss
[21] = Half life in mouse at 3 mg/kg, iv; type: ADME, organism-based; settings: in vivo
[22] = Half life in rat at 2 mg/kg, iv; type: ADME, organism-based; settings: in vivo
[23] = Half life in dog at 1 mg/kg, iv; type: ADME, organism-based, Canis lupus familiaris; settings: in vivo
[24] = Half life in monkey at 1 mg/kg, iv; type: ADME, organism-based, Macaca mulatta; settings: rhesus monkey, in vivo
[25] = Oral bioavailability in mouse at 6 mg/kg; type: ADME, organism-based; settings: in vivo
[26] = Oral bioavailability in rat at 5 mg/kg; type: ADME, organism-based; settings: in vivo
[27] = system: Canis familiaris; assay: Oral bioavailability in dog at 2 mg/kg; type: ADME, organism-based, Canis lupus familiaris; settings: in vivo
[28] = system: Plasma; assay: Drug uptake in New Zealand White rabbit plasma at 3 mg/kg, iv administered as 10 mins infusion measured up to 30 mins post dose; type: ADME, organism-based, Oryctolagus cuniculus; settings: in vivo
[29] = system: Plasma; assay: Drug uptake in New Zealand White rabbit plasma at 10 mg/kg, iv administered as 10 mins infusion measured up to 30 mins post dose; type: ADME, organism-based, Oryctolagus cuniculus; settings: in vivo
[30] = system: Plasma; assay: Drug uptake in New Zealand White rabbit plasma at 20 mg/kg, iv administered as 10 mins infusion measured up to 30 mins post dose; type: ADME, organism-based, Oryctolagus cuniculus; settings: in vivo
[31] = system: Plasma; assay: Free plasma concentration in New Zealand White rabbit at 3 mg/kg, iv administered as 10 mins infusion measured up to 30 mins post dose; type: ADME, organism-based, Oryctolagus cuniculus; settings: in vivo
[32] = system: Plasma; assay: Free plasma concentration in New Zealand White rabbit at 10 mg/kg, iv administered as 10 mins infusion measured up to 30 mins post dose; type: ADME, organism-based, Oryctolagus cuniculus; settings: in vivo
[33] = system: Plasma; assay: Free plasma concentration in New Zealand White rabbit at 20 mg/kg, iv administered as 10 mins infusion measured up to 30 mins post dose; type: ADME, organism-based, Oryctolagus cuniculus; settings: in vivo
[34] = system: Oryctolagus cuniculus; assay: Effect on QTc time interval in New Zealand White rabbit at 3 mg/kg, iv administered as 10 mins infusion measured for 2 mins by ECG analysis; type: ADME, organism-based; settings: in vivo
[35] = system: Oryctolagus cuniculus; assay: Effect on QTc time interval in New Zealand White rabbit at 10 mg/kg, iv administered as 10 mins infusion measured for 2 mins by ECG analysis; type: ADME, organism-based; settings: in vivo
[36] = system: Oryctolagus cuniculus; assay: Effect on QTc time interval in New Zealand White rabbit at 20 mg/kg, iv administered as 10 mins infusion measured for 2 mins by ECG analysis; type: ADME, organism-based; settings: in vivo
[37] = system: Oryctolagus cuniculus; assay: Effect on QTc time interval in New Zealand White rabbit administered as 10 mins iv infusion measured for 2 mins by ECG analysis; type: ADME, organism-based; settings: in vivo

SMILES: CC(=O)N1CCN(c2cccc(-c3cc(C(F)(F)F)c4c(N)ncnn34)c2)C(=O)C1(C)C
- remaining at 10 min, 0.5 µM [1]: 83%
- remaining at 10 min, 0.5 µM [2]: 52%
- remaining at 10 min, 0.5 µM [3]: 30%
- half-life at 0.5 µM [4]: 41 min
- half-life at 0.5 µM [5]: 14 min
- half-life at 0.5 µM [6]: 9 min

SMILES: CC(=O)N1C[C@@H](C)N(c2cc(-c3cc(Cl)c4c(N)ncnn34)ccc2C#N)C(=O)C1(C)C
- remaining at 10 min, 0.5 µM [1]: 82%
- remaining at 10 min, 0.5 µM [2]: 59%
- remaining at 10 min, 0.5 µM [3]: 22%

SMILES: CC(=O)N1CCN(c2cc(-c3cc(C(F)(F)F)c4c(N)ncnn34)ccc2C#N)C(=O)C1(C)C
- Cmax [7]: 5.9 µM
- Cmax [8]: 14 µM
- remaining at 10 min, 0.5 µM [1]: 94%
- remaining at 10 min, 0.5 µM [2]: 91%
- remaining at 10 min, 0.5 µM [3]: 81%
- half-life at 0.5 µM [4]: > 120 min
- half-life at 0.5 µM [5]: 67 min
- half-life at 0.5 µM [6]: 72 min
- Cmax [9]: 8.2 µM
- AUC(0-t) at 24 h [10]: 17 µM·h
- Cmax [11]: 6.3 µM
- AUC [12]: 12 µM·h
- clearance [13]: 4.6 mL/min/kg
- AUC [14]: 54 µM·h
- clearance [15]: 17 mL/min/kg
- clearance [16]: 2.3 mL/min/kg
- Vd [17]: 2.7 L/kg
- Vd [18]: 0.5 L/kg
- Vd [19]: 0.61 L/kg
- Vd [20]: 3.6 L/kg
- half-life [21]: 294 min
- half-life [22]: 210 min
- half-life [23]: 1740 min
- half-life [24]: 600 min
- bioavailability [25]: 94%
- bioavailability [26]: 71%
- F [27]: 75%
- concentration [28]: 10 µM
- concentration [29]: 27 µM
- concentration [30]: 54 µM
- Cp(f) [31]: 0.9 µM
- Cp(f) [32]: 2.4 µM
- Cp(f) [33]: 4.8 µM
- Time [34]: 2.2 ms
- Time [35]: 13 ms
- Time [36]: 25 ms

SMILES: CC(=O)N1CCN(c2cccc(-c3cc(-c4ccnn4CC(F)(F)F)c4c(N)ncnn34)c2)C(=O)C1(C)C
- remaining at 10 min, 0.5 µM [1]: 80%
- remaining at 10 min, 0.5 µM [2]: 70%
- remaining at 10 min, 0.5 µM [3]: 62%
- half-life at 0.5 µM [4]: 57 min
- half-life at 0.5 µM [5]: 31 min
- half-life at 0.5 µM [6]: 26 min
- Cmax [9]: 1.8 µM
- AUC(0-t) at 24 h [10]: 4.1 µM·h
- Time [37]: > 10 ms

SMILES: CC(=O)N1CCN(c2cccc(-c3cc(-c4ccnn4C4CCOCC4)c4c(N)ncnn34)c2)C(=O)C1(C)C
- remaining at 10 min, 0.5 µM [1]: 77%
- remaining at 10 min, 0.5 µM [2]: 81%
- remaining at 10 min, 0.5 µM [3]: 53%

SMILES: CC(=O)N1CCN(c2cc(-c3cc(C(F)(F)F)c4c(N)ncnn34)ccc2C(F)(F)F)C(=O)C1(C)C
- remaining at 10 min, 0.5 µM [1]: 70%
- remaining at 10 min, 0.5 µM [2]: 77%
- remaining at 10 min, 0.5 µM [3]: 99%

Results, then the compound that gave them:

- remaining at 10 min, 0.5 µM [1]: 100%
- remaining at 10 min, 0.5 µM [2]: 100%
- remaining at 10 min, 0.5 µM [3]: 84%
SMILES: CC(=O)N1CCN(c2cc(-c3cc(Cl)c4c(N)ncnn34)ccc2S(C)(=O)=O)C(=O)C1(C)C

- remaining at 10 min, 0.5 µM [1]: 90%
- remaining at 10 min, 0.5 µM [2]: 89%
- remaining at 10 min, 0.5 µM [3]: 89%
SMILES: CC(=O)N1CCN(c2cc(-c3cc(Cl)c4c(N)ncnn34)ccc2C#N)C(=O)C1(C)C

- remaining at 10 min, 0.5 µM [1]: 94%
- remaining at 10 min, 0.5 µM [2]: 91%
- remaining at 10 min, 0.5 µM [3]: 94%
SMILES: COc1ccc(-c2cc(Cl)c3c(N)ncnn23)cc1N1CCN(C(C)=O)C(C)(C)C1=O

- remaining at 10 min, 0.5 µM [1]: 84%
- remaining at 10 min, 0.5 µM [2]: 19%
- remaining at 10 min, 0.5 µM [3]: 1%
SMILES: CC(=O)N1CCN(c2cccc(-c3cc(Cl)c4c(N)ncnn34)c2C)C(=O)C1(C)C

- remaining at 10 min, 0.5 µM [1]: 85%
- remaining at 10 min, 0.5 µM [2]: 52%
- remaining at 10 min, 0.5 µM [3]: 67%
SMILES: CC(=O)N1CCN(c2cc(-c3cc(Cl)c4c(N)ncnn34)ccc2Cl)C(=O)C1(C)C

- remaining at 10 min, 0.5 µM [1]: 82%
- remaining at 10 min, 0.5 µM [2]: 60%
- remaining at 10 min, 0.5 µM [3]: 66%
SMILES: CC(=O)N1CCN(c2cc(-c3cc(Cl)c4c(N)ncnn34)ccc2C)C(=O)C1(C)C
